Our source for the Activity values is ChEMBL document CHEMBL1150932, “Norepinephrine-augmenting lipolytic effectors from Astilbe thunbergii rhizomes” (J Nat Prod, 1998).

Data set [1] can be described thus: Stimulation of ACTH-induced lipolysis in Wistar rat fat cells assessed as free fatty acid release per mL of packed fat cells at 1000 ug after 1 hr relative to ACTH. The format is functional.
The species entered for data set [2] is Rattus norvegicus. In words: Induction of lipolysis in Wistar rat fat cells assessed as free fatty acid release per mL of packed fat cells after 1 hr relative to norepinephrine. The format is functional, cell-based.
The species entered for data set [3] is Rattus norvegicus. The data set is described as follows: Enhancement of norepinephrine-induced lipolysis in Wistar rat fat cells assessed as free fatty acid release per mL of packed fat cells after 1 hr relative to norepinephrine. The format is functional, cell-based.
Data set [4] in a line: Effect on lipolysis in cell-free system consisting sonicated lipid droplets assessed as free fatty acid release at 1000 ug in presence of hormone-sensitive lipase relative to untreated control. The data set is classed as physicochemical.
For data set [5], the species on record is Rattus norvegicus. The data set is described as follows: Inhibition of insulin-induced lipogenesis from [U-14C]glucose in Wistar rat fat cells after 1 hr by liquid scintillation counting. The data set is classed as functional, cell-based.
The species entered for data set [6] is Rattus norvegicus. In words: Enhancement of norepinephrine-induced lipolysis in cell-free system consisting endogenous lipid droplets from Wistar rat fat cells assessed as free fatty acid release per mL of packed fat cells after 1 hr in presence of hormone-sensitive lipase. The data set is classed as functional.
A short description of data set [7]: Stimulation of ACTH-induced lipolysis in Wistar rat fat cells assessed as free fatty acid release per mL of packed fat cells at 100 ug after 1 hr relative to ACTH. The data set is classed as functional.
A short description of data set [8]: Enhancement of norepinephrine-induced lipolysis in cell-free system consisting sonicated lipid droplets assessed as free fatty acid release at 1000 ug in presence of hormone-sensitive lipase relative to untreated control. The data set is classed as physicochemical.

Active and inactive are the calls of the source. The rule behind the calls is not given here.

Turning to `C[C@@H]1O[C@@H](Oc2coc3cc(O)cc(O)c3c2=O)[C@H](O)[C@H](O)[C@H]1O` [EUCRYPHIN], the Activity worked out at 332.8% in data set [1], 98.5% in data set [4], 79.4% in data set [7] and 100% in data set [8]. For the same compound, the result in the data set listed under Rattus norvegicus [2] was inactive. Further, the result in the data set filed under Rattus norvegicus [3], in the data set filed under Rattus norvegicus [5] and in the data set listed under Rattus norvegicus [6] was Active.

Turning to `C[C@@H]1O[C@@H](O[C@H]2C(=O)c3c(O)cc(O)cc3O[C@@H]2c2ccc(O)c(O)c2)[C@H](O)[C@H](O)[C@H]1O` [ASTILBIN], the Activity is reported as 278.4% in data set [1], 95.7% in data set [4], 195.6% in data set [7] and 98.5% in data set [8]. Also, the result in the data set listed under Rattus norvegicus [2] was inactive. For the same compound, the outcome in the data set filed under Rattus norvegicus [3], in the data set listed under Rattus norvegicus [5] and in the data set filed under Rattus norvegicus [6] was Active.

In the case of `COc1c(O)cc2c(c1O)[C@@H]1O[C@H](CO)[C@@H](O)[C@H](O)[C@H]1OC2=O` [BERGENIN], the Activity in data set [1] came to 356.9%; in data set [4], 98.6%; in data set [7], 105.9%; in data set [8], 96.2%. Moreover, the outcome in the data set listed under Rattus norvegicus [2] was inactive. Further, the result in the data set listed under Rattus norvegicus [3], in the data set listed under Rattus norvegicus [5] and in the data set listed under Rattus norvegicus [6] was Active.
